Data as given in ChEMBL document CHEMBL1201862, “PubChem BioAssay data set” (2004).
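48-hour exposure; five concentrations; linearly interpolated endpoints. At the GI50, growth is halved.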 Activity calls are given as the source filed them. Cut-off read from the data, not from the text of the source: active = GI50 up to about 1.1 µM and inactive = higher.

How the values were obtained:
Test in all cases: growth of human tumour cells (NCI), 48 h
[1] = test system: OVCAR-3
[2] = test system: HL-60
[3] = test system: 786-0
[4] = test system: ACHN
[5] = test system: SK-MEL-2
[6] = test system: UO-31
[7] = test system: LOX IMVI
[8] = test system: SF-539
[9] = test system: RXF 393
[10] = test system: T47D
[11] = test system: MDA-N
[12] = test system: UACC-257
[13] = test system: M14
[14] = test system: OVCAR-8
[15] = test system: NCI-H226
[16] = test system: TK-10
[17] = test system: NCI-H460
[18] = test system: NCI/ADR-RES
[19] = test system: HOP-92
[20] = test system: SNB-75
[21] = test system: MDA-MB-231
[22] = test system: KM12
[23] = test system: SF-268
[24] = test system: OVCAR-5
[25] = test system: SK-MEL-28
[26] = test system: U-251
[27] = test system: K562
[28] = test system: EKVX
[29] = test system: DU-145
[30] = test system: PC-3
[31] = test system: HCT-15
[32] = test system: NCI-H522
[33] = test system: CAKI-1
[34] = test system: SF-295
[35] = test system: SN12C
[36] = test system: MOLT-4
[37] = test system: RPMI-8226
[38] = test system: HOP-62
[39] = test system: HCT-116
[40] = test system: Hs-578T
[41] = test system: HT-29
[42] = test system: UACC-62
[43] = test system: MDA-MB-435
[44] = test system: SNB-19
[45] = test system: BT-549
[46] = test system: Malme-3M
[47] = test system: OVCAR-4
[48] = test system: NCI-H23
[49] = test system: HCC 2998
[50] = test system: A549
[51] = test system: CCRF-CEM
[52] = test system: SW-620
[53] = test system: A498
[54] = test system: SR
[55] = test system: MCF7
[56] = test system: SK-OV-3
[57] = test system: SK-MEL-5
[58] = test system: IGROV-1
[59] = test system: COLO 205

## N#Cc1c(N)n(-c2nc3ccccc3s2)c(=O)c2cc([N+](=O)[O-])ccc12
[1]
  GI50: 14.8 µM (inactive)
[2]
  GI50: 7.74 µM (inactive)
[3]
  GI50: 21.7 µM (inactive)
[4]
  GI50: 20.3 µM (inactive)
[5]
  GI50: 15.4 µM (inactive)
[6]
  GI50: 21.7 µM (inactive)
[7]
  GI50: 7.03 µM (inactive)
[8]
  GI50: 12.4 µM (inactive)
[9]
  GI50: 7.62 µM (inactive)
[10]
  GI50: 21.8 µM (inactive)
[11]
  GI50: 25.9 µM (inactive)
[12]
  GI50: 23.4 µM (inactive)
[13]
  GI50: 23.2 µM (inactive)
[14]
  GI50: 16.8 µM (inactive)
[15]
  GI50: 6.93 µM (inactive)
[16]
  GI50: 23.6 µM (inactive)
[17]
  GI50: 6.32 µM (inactive)
[18]
  GI50: 6.46 µM (inactive)
[19]
  GI50: 14.1 µM (inactive)
[20]
  GI50: 14.9 µM (inactive)
[21]
  GI50: 15.6 µM (inactive)
[22]
  GI50: 19.7 µM (inactive)
[23]
  GI50: 15 µM (inactive)
[24]
  GI50: 24.8 µM (inactive)
[25]
  GI50: 26.7 µM (inactive)
[26]
  GI50: 19.9 µM (inactive)
[27]
  GI50: 15.7 µM (inactive)
[28]
  GI50: 23.3 µM (inactive)
[29]
  GI50: 25.6 µM (inactive)
[30]
  GI50: 5.51 µM (inactive)
[31]
  GI50: 4.04 µM
[32]
  GI50: 6.49 µM (inactive)
[33]
  GI50: 20.9 µM (inactive)
[34]
  GI50: 9.2 µM (inactive)
[35]
  GI50: 23.1 µM (inactive)
[36]
  GI50: 5.46 µM (inactive)
[37]
  GI50: 10.8 µM (inactive)
[38]
  GI50: 7.08 µM (inactive)
[39]
  GI50: 4.44 µM (inactive)
[40]
  GI50: 9.16 µM (inactive)
[41]
  GI50: 3.5 µM (inactive)
[42]
  GI50: 21.3 µM (inactive)
[43]
  GI50: 25 µM (inactive)
[44]
  GI50: 17.7 µM (inactive)
[45]
  GI50: 21.2 µM (inactive)
[46]
  GI50: 18.7 µM (inactive)
[47]
  GI50: 24.3 µM (inactive)
[48]
  GI50: 9.38 µM (inactive)
[49]
  GI50: 9.44 µM (inactive)
[50]
  GI50: 14.6 µM (inactive)
[51]
  GI50: 0.0453 µM (active)
[52]
  GI50: 26.2 µM (inactive)
[53]
  GI50: 17.1 µM (inactive)
[54]
  GI50: 14.2 µM (inactive)
[55]
  GI50: 7.21 µM (inactive)
[56]
  GI50: 25.4 µM (inactive)

## CCCCN1C(=O)c2c(-c3sccc3N)sc(-c3sccc3N)c2C1=O
[1]
  GI50: 16 µM (inactive)
[3]
  GI50: 7.85 µM (inactive)
[4]
  GI50: 15.7 µM (inactive)
[5]
  GI50: 32.7 µM (inactive)
[6]
  GI50: 6.84 µM (inactive)
[57]
  GI50: 29.8 µM (inactive)
[7]
  GI50: 30.7 µM (inactive)
[8]
  GI50: 12.4 µM (inactive)
[9]
  GI50: 12.6 µM (inactive)
[10]
  GI50: 14.2 µM (inactive)
[11]
  GI50: 4.94 µM (inactive)
[12]
  GI50: 56.1 µM (inactive)
[13]
  GI50: 8.38 µM (inactive)
[14]
  GI50: 12.3 µM (inactive)
[15]
  GI50: 0.713 µM (active)
[16]
  GI50: 22.3 µM (inactive)
[17]
  GI50: 26.1 µM (inactive)
[18]
  GI50: 21.3 µM (inactive)
[19]
  GI50: 52 µM (inactive)
[20]
  GI50: 10.4 µM (inactive)
[21]
  GI50: 30.8 µM (inactive)
[22]
  GI50: 44.6 µM (inactive)
[23]
  GI50: 12.3 µM (inactive)
[24]
  GI50: 21.5 µM (inactive)
[25]
  GI50: 7.98 µM (inactive)
[26]
  GI50: 12.9 µM (inactive)
[27]
  GI50: 16.3 µM (inactive)
[28]
  GI50: 26.9 µM (inactive)
[58]
  GI50: 23 µM (inactive)
[29]
  GI50: 21.4 µM (inactive)
[30]
  GI50: 14.8 µM (inactive)
[31]
  GI50: > 34.9 µM
[32]
  GI50: 14.1 µM (inactive)
[33]
  GI50: 23.8 µM (inactive)
[34]
  GI50: 14.5 µM (inactive)
[35]
  GI50: 19 µM (inactive)
[36]
  GI50: 2.8 µM (inactive)
[37]
  GI50: 4.47 µM (inactive)
[38]
  GI50: 14.7 µM (inactive)
[39]
  GI50: 21.7 µM (inactive)
[40]
  GI50: 16.9 µM (inactive)
[59]
  GI50: 15.4 µM (inactive)
[41]
  GI50: 14.2 µM (inactive)
[42]
  GI50: 19.3 µM (inactive)
[43]
  GI50: 30.8 µM (inactive)
[44]
  GI50: 18.9 µM (inactive)
[45]
  GI50: 29.4 µM (inactive)
[46]
  GI50: 21.6 µM (inactive)
[47]
  GI50: 10.9 µM (inactive)
[48]
  GI50: 28 µM (inactive)
[49]
  GI50: 73.6 µM (inactive)
[50]
  GI50: 24.1 µM (inactive)
[51]
  GI50: 4.05 µM (inactive)
[52]
  GI50: > 32.6 µM (inactive)
[53]
  GI50: 23.4 µM (inactive)
[54]
  GI50: 1.98 µM (inactive)
[55]
  GI50: 11.2 µM (inactive)
[56]
  GI50: 10.6 µM (inactive)

## CCOP(=O)(OCC)C(Nc1cccc(F)c1)c1ccccc1 (configuration not stated)
[1]
  GI50: 60.5 µM (inactive)
[2]
  GI50: 18.1 µM (inactive)
[3]
  GI50: > 100 µM (inactive)
[4]
  GI50: 58.7 µM (inactive)
[5]
  GI50: 47.9 µM (inactive)
[6]
  GI50: 44.8 µM (inactive)
[57]
  GI50: 42.2 µM (inactive)
[7]
  GI50: 75.7 µM (inactive)
[8]
  GI50: > 100 µM (inactive)
[9]
  GI50: 25.2 µM (inactive)
[10]
  GI50: 22.7 µM (inactive)
[11]
  GI50: > 100 µM (inactive)
[12]
  GI50: 45.1 µM (inactive)
[13]
  GI50: 69.5 µM (inactive)
[14]
  GI50: 62.2 µM (inactive)
[15]
  GI50: 93.5 µM (inactive)
[16]
  GI50: > 100 µM (inactive)
[17]
  GI50: 43.9 µM (inactive)
[18]
  GI50: 34.5 µM (inactive)
[19]
  GI50: 32.7 µM (inactive)
[20]
  GI50: 20.7 µM (inactive)
[21]
  GI50: 75.5 µM (inactive)
[22]
  GI50: 67 µM (inactive)
[23]
  GI50: 59 µM (inactive)
[25]
  GI50: > 100 µM (inactive)
[26]
  GI50: 74.1 µM (inactive)
[27]
  GI50: 34.8 µM (inactive)
[28]
  GI50: 40.5 µM (inactive)
[58]
  GI50: > 100 µM (inactive)
[29]
  GI50: > 100 µM (inactive)
[30]
  GI50: 50.2 µM (inactive)
[31]
  GI50: 44.4 µM
[32]
  GI50: 36.1 µM (inactive)
[33]
  GI50: > 100 µM (inactive)
[34]
  GI50: 54.7 µM (inactive)
[35]
  GI50: 75.9 µM (inactive)
[36]
  GI50: 30 µM (inactive)
[37]
  GI50: 29.7 µM (inactive)
[38]
  GI50: > 100 µM (inactive)
[39]
  GI50: 44.1 µM (inactive)
[40]
  GI50: 35.9 µM (inactive)
[59]
  GI50: 34.4 µM (inactive)
[41]
  GI50: 58.1 µM (inactive)
[42]
  GI50: 63 µM (inactive)
[43]
  GI50: 78.9 µM (inactive)
[44]
  GI50: > 100 µM (inactive)
[45]
  GI50: > 100 µM (inactive)
[46]
  GI50: 50.7 µM (inactive)
[47]
  GI50: 59.3 µM (inactive)
[48]
  GI50: > 100 µM (inactive)
[49]
  GI50: 66.1 µM (inactive)
[50]
  GI50: 43.9 µM (inactive)
[51]
  GI50: 47.1 µM (inactive)
[52]
  GI50: > 10 µM (inactive)
[53]
  GI50: > 100 µM (inactive)
[54]
  GI50: 38.9 µM (inactive)
[55]
  GI50: 76.6 µM (inactive)
[56]
  GI50: > 100 µM (inactive)
